The values that follow come from PMC10600185, “Development and pharmaceutical investigation of novel cervical cancer-targeting and redox-responsive melittin conjugates” (Scientific Reports, 2023).

Data set [1] in a line: MTT cytotoxicity assay, NSF. It counts as cell-based. The following applies: human, normal skin fibroblast (NSF) cells, 24 h treatment, serial dilutions 256–1 µg/mL, concentration by modified Mel peptide content, mean of three replicates. The method, then:
(§1) C-33A ([…], ATCC), HeLa ([…], ATCC), 3T3 (CRL-1658™, ATCC), Normal Skin Fibroblast (CRL-2091™, ATCC) and MCF-7 (HTB-22™, ATCC) cell lines were cultured in complete EMEM, DMEM, DMEM, EMEM, and EMEM (containing 1% Pen/Strep antibiotic and 10% FBS), respectively. Cells from the different lines were seeded at a density of 5 × 10^4 cells/well in 100 µL medium placed in a flat-bottom 96-well plate and incubated at 5% CO2 and 37 °C. After 24 h, the medium was discarded from the 96-well plate. Serial dilutions of peptide/conjugate (i.e., 256–1 µg/mL) were prepared in triplicate in 100 µL complete medium then added onto each well and incubated at 5% CO2 and 37 °C for 24 h. The cytotoxicity was determined by MTT test (MTT, Cell Proliferation Kit, Roche) and measured at 550–690 nm on a microplate reader. The cell cytotoxicity was calculated with respect to control groups treated with only complete medium.
(In general: Tetrazolium dyes change colour on reduction, which living cells bring about.)

Data set [2] in a line: MTT cytotoxicity assay, 3T3. The following applies: mouse, 3T3 cells (embryonic fibroblasts), 24 h treatment, serial dilutions 256–1 µg/mL, concentration by modified Mel peptide content, mean of three replicates. It counts as cell-based. As to the method:
as §1

Another data set relates to human red blood cells. The experiment in a line: Hemolytic activity. In kind it is cell-based. To be noted: human erythrocytes in tris-saline pH 7.2, 256–4 µg/mL, 37 °C, 1 h, absorbance 414 nm, triplicate. The method, then:
30 µL of fresh human blood was added to 10 mL of autoclaved tris-saline (10 mM tris, 150 mM NaCl, pH 7.2) and centrifuged at 1500 rpm for 5 min three times. 100 µL of the blood mix was added to each well of a round-bottom 96-well plate. Concentrations of freshly prepared peptide/conjugate (i.e., ranging from 256–4 µg/mL) in tris-saline (100 µL of total volume) were added to the 96-well plate containing the blood mix and the plate kept at 37 °C for 1 h. Triton X-100 in 10% DMSO-treated blood mix and blood mix without addition were used as positive and negative controls, respectively. Next, the plate was centrifuged for 10 min at 1500 rpm. The supernatants were taken into a new round-bottom 96-well plate and measured at 414 nm using a microplate reader. All samples were used as a triplicate.

Data set [3] in a line: HPLC % ACN at elution as measure of hydrophobicity. It counts as physicochemical. The following applies: semi-preparative RP-HPLC, C-18 column; for HPLC gradient (ACN %) of the purified peak: 0–100% ACN (0.025% TFA) gradient, 30 min for FA conjugates, 40 min for Target conjugates, % ACN used as hydrophobicity. The method, then:
The peptide/conjugate was purificated and analyzed (data not shown) using HPLC (Agilent Technologies, USA) with C-18 column (RPC 250 × 10 mm ID hydrophobic 6 µm, Agilent VariTide). For the CM–FA and MC–FA conjugates’ purification, we used a 0–100% ACN (0.025% TFA) gradient for 30 min, and for the CM–Target, and MC–Target conjugates, we used a 0–100% ACN (0.025% TFA) gradient for 40 min. Peptide methods for HPLC purification are provided in Supp. Data 1. A Nicolet iS10 FT-IR was used to obtain infrared spectra of the peptide/conjugates in the range of 4000–500 cm^−1. The chemical structure of the peptide/conjugates was characterized by proton nuclear resonance (^1H NMR) spectroscopy using a 400-MHz Burker NMR spectrometer in DMSO-d6. To evaluate the molecular weight of the synthesized peptide, LC–MS/MS (6420 Triple Quad, Agilent Technologies) was used.

A further data set relates to HeLa cells. As to the kind of experiment: ROS assay (DCFDA), HeLa. In kind it is cell-based, human. To be noted: 200 µM TBHP positive control, Ex/Em 485/535 nm, data not shown. The method, then: (§2) To evaluate the ROS activity of peptide/conjugates, a ROS kit (DCFDA/H2DCFDA—Cellular ROS Assay Kit, Abcam) was applied to C33A, HeLa, and Normal Skin Human Fibroblast cells. 25,000 cells/well were seeded on a flat-bottom 96-well plate and incubated at 37 °C and 5% CO2. After 24 h, the media was discarded, and the wells were washed with 1 × buffer. DCFDA was then added to wells (except for non-stained control cells) and all plates were incubated for 45 min at 37 °C and 5% CO2 in the dark. […] A positive control (TBHP) was also applied. The results were assessed using a microplate reader (Varioskan Flash, Thermo Scientific) at Ex/Em: 485/535 nm. The negative control (non-stained cells) was subtracted from the cell control and drug samples for calculation.

For a further data set, the system named is NSF cells. As to the kind of experiment: ROS assay (DCFDA), NSF. To be noted: 200 µM TBHP positive control, Ex/Em 485/535 nm, data not shown. It counts as cell-based, human. As to the method:
as §2

In a further data set the test system is C33A cells. The experiment in a line: ROS assay (DCFDA), C33A. In kind it is cell-based, human. To be noted: 200 µM TBHP positive control, Ex/Em 485/535 nm, data not shown. As to the method:
as §2

The next data set relates to cell lines. The experiment in a line: Cytotoxicity of the targeting peptide alone on the cell lines. In kind it is cell-based. The following applies: tested alone on cell lines, data not shown. As to the method:
as §1

For another data set, the system named is E. coli 25922. As to the kind of experiment: Minimum inhibitory concentration, E. coli. Details: key: No inhibitory effects were observed at any of the concentrations tested in the areas marked “X” and bacterial growth was seen. The following applies: MHB, two-fold dilutions 1024–0.5 µg/mL, 37 °C overnight, OD 600 nm. In kind it is cell-based, Escherichia coli. As to the method: (§3) The MIC of the conjugates on E. coli and S. aureus were determined. 95 µL of the MHB containing serial two-fold dilutions of each peptide/conjugate were added to a round-bottom 96-well plate from a maximum concentration of 1024 µg/mL to 0.5 µg/mL. Bacterial samples were taken from an exponentially growing culture in MHB and adjusted to 1.5 × 10^6 CFU/mL. 5 µL of the prepared bacterial suspension was added to each well and incubated at 37 °C, overnight. The bacterial growth was measured using a microplate reader (Gen5 Synergy HT, Biotek) at 600 nm. Broth containing only bacteria was used as a positive control while broth without bacteria was used as a negative control.

The test system of the next data set is S. aureus 25923. The experiment in a line: Minimum inhibitory concentration, S. aureus. Details: key: No inhibitory effects were observed at any of the concentrations tested in the areas marked “X” and bacterial growth was seen. It counts as cell-based, Staphylococcus aureus. The following applies: MHB, two-fold dilutions 1024–0.5 µg/mL, 37 °C overnight, OD 600 nm. As to the method:
as §3

Converted amounts (≈) assume the structure as drawn.

For `CC[C@H](C)[C@H](NC(=O)CNC(=O)[C@@H](N)CS)C(=O)NCC(=O)N[C@@H](C)C(=O)N[C@H](C(=O)N[C@@H](CC(C)C)C(=O)N[C@@H](CCCCN)C(=O)N[C@H](C(=O)N[C@@H](CC(C)C)C(=O)N[C@H](C(=O)N[C@H](C(=O)NCC(=O)N[C@@H](CC(C)C)C(=O)N1CCC[C@H]1C(=O)N[C@@H](C)C(=O)N[C@@H](CC(C)C)C(=O)N[C@H](C(=O)N[C@@H](CO)C(=O)N[C@@H](Cc1c[nH]c2ccccc12)C(=O)N[C@H](C(=O)N[C@@H](CCCCN)C(=O)N[C@@H](CCCNC(=N)N)C(=O)N[C@@H](CCCCN)C(=O)N[C@@H](CCCNC(=N)N)C(=O)N[C@@H](CCC(N)=O)C(=O)N[C@@H](CCC(N)=O)C(N)=O)[C@@H](C)CC)[C@@H](C)CC)[C@@H](C)O)[C@@H](C)O)C(C)C)C(C)C` [C-Mel], the concentration for half-maximal inhibition (IC50) at 24 h turned out to be 53.4 µg/mL (≈ 18.1 µM) in data set [1] and 84 µg/mL (≈ 28.5 µM) in data set [2]. Besides, the “Hemotoxicity ranking among peptides/conjugates” value with human red blood cells is “highest hemotoxicity”. In addition, the “HPLC gradient (ACN %) of the purified peak” value (“HPLC gradient (ACN %)” for short) in data set [3] is 77–79%.
With `CC[C@H](C)[C@H](NC(=O)CN)C(=O)NCC(=O)N[C@@H](C)C(=O)N[C@H](C(=O)N[C@@H](CC(C)C)C(=O)N[C@@H](CCCCN)C(=O)N[C@H](C(=O)N[C@@H](CC(C)C)C(=O)N[C@H](C(=O)N[C@H](C(=O)NCC(=O)N[C@@H](CC(C)C)C(=O)N1CCC[C@H]1C(=O)N[C@@H](C)C(=O)N[C@@H](CC(C)C)C(=O)N[C@H](C(=O)N[C@@H](CO)C(=O)N[C@@H](Cc1c[nH]c2ccccc12)C(=O)N[C@H](C(=O)N[C@@H](CCCCN)C(=O)N[C@@H](CCCNC(=N)N)C(=O)N[C@@H](CCCCN)C(=O)N[C@@H](CCCNC(=N)N)C(=O)N[C@@H](CCC(N)=O)C(=O)N[C@@H](CCC(N)=O)C(N)=O)[C@@H](C)CC)[C@@H](C)CC)[C@@H](C)O)[C@@H](C)O)C(C)C)C(C)C` [Mel, Melittin], the “HPLC gradient (ACN %)” value in data set [3] is 63–72%. Moreover, the “Hydrophobicity as % ACN at elution” value in [3] (ACN (0.025% TFA) gradient) came out at 67 % ACN.
For the molecule `CC[C@H](C)[C@H](NC(=O)CN)C(=O)NCC(=O)N[C@@H](C)C(=O)N[C@H](C(=O)N[C@@H](CC(C)C)C(=O)N[C@@H](CCCCN)C(=O)N[C@H](C(=O)N[C@@H](CC(C)C)C(=O)N[C@H](C(=O)N[C@H](C(=O)NCC(=O)N[C@@H](CC(C)C)C(=O)N1CCC[C@H]1C(=O)N[C@@H](C)C(=O)N[C@@H](CC(C)C)C(=O)N[C@H](C(=O)N[C@@H](CO)C(=O)N[C@@H](Cc1c[nH]c2ccccc12)C(=O)N[C@H](C(=O)N[C@@H](CCCCN)C(=O)N[C@@H](CCCNC(=N)N)C(=O)N[C@@H](CCCCN)C(=O)N[C@@H](CCCNC(=N)N)C(=O)N[C@@H](CCC(N)=O)C(=O)N[C@@H](CCC(N)=O)C(=O)N[C@@H](CS)C(N)=O)[C@@H](C)CC)[C@@H](C)CC)[C@@H](C)O)[C@@H](C)O)C(C)C)C(C)C` [Mel-C], the IC50 at 24 h in data set [1] was determined as 43.7 µg/mL (≈ 14.8 µM); in data set [2] it was 130 µg/mL (≈ 44.2 µM). In [3], the “HPLC gradient (ACN %)” value is 77–79%.
Take `CC(C)(C)OO` [TBHP]: in the data set with HeLa cells, the “ROS level, HeLa” value is 51.26 RFU. In the data set on NSF cells, the “ROS level, NSF” value came to 36.46 RFU. In addition, in the data set with C33A cells, the “ROS level, C33A” value is given as 60.70 RFU.
Consider “CKQNLAEG [Targeting peptide, CSP-KQ peptide (CKQNLAEG), specific to cervical squamous cell carcinoma tissue]”, for which the “Toxicity of the peptide alone on cell lines” value in the data set on cell lines is reported as “non-toxic”. In addition, in the data set with E. coli 25922, the “Minimum inhibitory concentration, E. coli 25922” value is listed as “X”. For the same molecule, in the data set on S. aureus 25923, the “Minimum inhibitory concentration, S. aureus 25923” value is on record as “X”. The “HPLC gradient (ACN %)” value in [3] is 53–57%.

Broadly, the IC50 is the concentration at which inhibition is half-maximal.
